This is an account of results in patent publication US20250090441A1, “ANTI-CARIES PEPTIDES WITH ANTIMICROBIAL AND REMINERALIZING PROPERTIES AND METHODS THEREOF” (THE UNIVERSITY OF HONG KONG, priority 2023, published 2025).

Each structure is given as a SMILES string. Values after ≈ are worked out from the molar mass of the structure shown. Where a SMILES comes first, the peptide text is derived from it.

Assay type in all cases: cell-based
Assay [1] relates to Streptococcus mutans in multiple-species cariogenic biofilm. Briefly: Multiple-species cariogenic biofilm, PMA-qPCR. The conditions noted are these: three-species biofilm treated with GAPI, n=6 per group. The protocol:
(§1) A multiple-species cariogenic biofilm consisting of Streptococcus mutans, Lacticaseibacillus casei and Candida albicans was cultured to assess the anti-biofilm properties of GAPI. The culture medium was modified-artificial saliva as described in a previous protocol (Yassin et al. 2016). The biofilm was cultured on glass slides in 24-well plates with 1×10^7 Streptococcus mutans, 1×10^7 Lacticaseibacillus casei and 1×10^5 Candida albicans for 48 h. The biofilm was then treated with GAPI. The biofilm with no treatment was the negative control. After another 48-h incubation, the biofilm was collected for sequent assessments. The architecture of the multiple-species biofilm was assessed using scanning electron microscopy (SEM) and confocal laser scanning microscopy (CLSM). The sample was prepared with our published protocol (Niu et al. 2021d). The growth kinetics of the multiple-species biofilm were analyzed using propidium monoazide-quantitative polymerase chain reaction (PMA-qPCR) (Loozen et al. 2011). Biofilm was suspended in phosphate-buffered solution. The suspension was treated with propidium monoazide (PMA) (Biotium, San Francisco, USA) and exposed to halogen light photoactivation (PMA-Lite™, Biotium, San Francisco, USA). The brightness (luminosity) of the light device is 600-800 millicandela and its wavelength is 465-475 nm. Then deoxyribonucleic acid (DNA) was extracted from PMA-treated biofilm suspension using QIAamp DNA Mini Kit (QIAGEN, Dusseldorf, Germany). The oligonucleotide primers and TaqMan probes were used to quantify multiple-species cariogenic biofilm species: SMUT-forward(F), SMUT-reverse(R) and SMUT-probe(P) for Streptococcus mutans, Lc-F, Lc-R, Lc-P for Lactobacillus casei and Ca—F, Ca—R and Ca-P for Candida albicans […]. […]
(§2) Biofilm was suspended in phosphate-buffered solution. […] The oligonucleotide primers and TaqMan probes were used to quantify multiple-species cariogenic biofilm species: SMUT-forward(F), SMUT-reverse(R) and SMUT-probe(P) for Streptococcus mutans, Lc-F, Lc-R, Lc-P for Lactobacillus casei and Ca—F, Ca—R and Ca-P for Candida albicans (Table 3). […]
(In general: In qPCR the cycle at which signal appears reflects the starting amount.)

Assay [2] has as its system Lacticaseibacillus casei in multiple-species cariogenic biofilm. Put plainly: Multiple-species cariogenic biofilm, PMA-qPCR. Particulars: three-species biofilm treated with GAPI, n=6 per group. The procedure: as §1, §2
The test system of assay [3] is Candida albicans in multiple-species cariogenic biofilm. Briefly: Multiple-species cariogenic biofilm, PMA-qPCR. The conditions noted are these: three-species biofilm treated with GAPI, n=6 per group. The procedure: as §1, §2
In assay [4] the test system is Candida albicans, ATCC 90028. The protocol:
(§3) The antimicrobial properties of synthesized peptides against bacteria and fungi were evaluated using minimum inhibitory concentration (MIC) and minimum bactericidal/fungicidal concentration (MBC/MFC) tests (Wiegand et al. 2008). The tested species include Streptococcus mutans, UA159; Lacticaseibacillus casei, American Type Culture Collection (ATCC) 334; and Candida albicans, ATCC 90028. A 10 μL aliquot of bacterial culture (10^6 CFU/mL) in brain heart infusion (BHI) broth was added to 100 μL serial two-fold dilutions of experimental solutions. The optical density values at 660 nm were measured after 18 h of incubation. To determine the MBC, 10 μL of bacterial culture was taken from the well of MIC, and wells before and after the well of MIC, and transferred to blood agar. The test protocol for fungi was similar: the culture medium was a Roswell Park Memorial Institute (RPMI) 1640 Medium, the absorbance was measured at 520 nm, and Sabouraud dextrose agar was used for the MFC test. Chlorhexidine and medium were used as the positive and negative controls.

Assay [5] has as its system Lacticaseibacillus casei, ATCC 334. Briefly: MIC and MBC/MFC test. The procedure: as §3
Assay [6] concerns Streptococcus mutans ATCC 35668. The procedure:
Common oral pathogenic bacterial strains were selected for this study. Streptococcus mutans ATCC 35668, Streptococcus sobrinus ATCC 33478, Lactobacillus acidophilus ATCC 9224, Lactobacillus rhamnosus ATCC10863, Actinomyces naeslundii ATCC 12104, Enterococcus faecalis ATCC 29212, Porphyromonas gingivalis ATCC 33277, and Actinobacillus actinomycetemcomitans ATCC 29523. All the strains were cultured anaerobically.
Brain heart infusion (BHI) medium was used for culture of S. mutans, S. sobrinus, L. acidophilus, L. rhamnosus, A. naeslundii, E. faecalis, and A. actinomycetemcomitans, whereas p.g. broth was used for culture of Porphyromonas gingivalis. The standard dilution method in a 96-well microplate was conducted in order to evaluate the antimicrobial efficacy of GAPI. Each well was filled with […] GAPI dilutions. In addition, serial twofold dilutions in concentrations ranging from 1280 μM to 1.25 μM were prepared. A 10 μL bacterial culture (10^6 CFU/mL) was added. Chlorhexidine was used as positive control, and medium was used as negative control. The plates were then anaerobically incubated at 37° C. for 24 h. The absorbance was measured at a wavelength of 660 nm in order to analyze the growth of microorganisms. […] The MBC endpoint was the lowest concentration at which 99.9% of the bacterial population was killed, which thus means the absence of bacteria. The morphology of the bacteria and fungi treated with synthesized peptides was analysed using transmission electron microscopy (TEM) (Philips CM100, Philips/FEI Corporation, Eindhoven, Holland). The sample was prepared following a previous study (Niu et al. 2021d). Copper grids were used to contain the semi-thin sections of bacteria/fungi for examination.

In general, MBC refers to the smallest concentration meeting the test's criterion for killing. The low end stands for more potent killing, the high end for less potent killing. In the case of `CC(C)[C@@H]1NC(=O)[C@H](CCCN=C(N)N)NC(=O)[C@H](Cc2ccccc2)NC(=O)[C@@H](NC(=O)[C@H](Cc2c[nH]c3ccccc23)NC(=O)[C@H](CCCN=C(N)N)NC(=O)[C@H](CCCN=C(N)N)NC(=O)c2cc(O)c(O)c(O)c2)CSSC[C@@H](C(=O)N[C@@H](CCCN=C(N)N)C(=O)O)NC(=O)[C@H](CCCCN)NC(=O)[C@H](CCCN=C(N)N)NC(=O)[C@H](Cc2ccc(O)cc2)NC(=O)[C@@H]2CSSC[C@H](NC1=O)C(=O)N[C@@H](Cc1ccc(O)cc1)C(=O)N[C@@H](CCCN=C(N)N)C(=O)NCC(=O)N[C@@H](Cc1ccccc1)C(=O)N2` [GAPI, Gallic-Acid-Polyphemusin-I] (HELM PEPTIDE1{[O=C(c1cc(O)c(O)c(O)c1)[*:2]].R.R.W.C.F.R.V.C.Y.R.G.F.C.Y.R.K.C.R}$PEPTIDE1,PEPTIDE1,5:R3-18:R3|PEPTIDE1,PEPTIDE1,9:R3-14:R3$$$V2.0), in assay [1], the “log 10 cell counts of Streptococcus mutans” value amounted to 6.05±0.37. For the same compound, in assay [2], the “log 10 cell counts of Lacticaseibacillus casei” value is given as 7.33±0.38. For the same compound, the “log 10 cell counts of Candida albicans” value in assay [3] was 6.63±0.55. Moreover, the minimum inhibitory concentration in assay [4] is 80 µM (≈ 209 µg/mL); in assay [5] it was 40 µM (≈ 104 µg/mL). Further, the MBC/MFC in assay [4] (μM) is reported as 40; in assay [5] (μM) it was 160. In addition, the MIC came to 20 in assay [4] (μM); 40 in assay [5] (μM); 80 µM (≈ 209 µg/mL) in assay [6] (ATCC 35668, anaerobic, 24 h). This compound showed an MBC in assay [6] (ATCC 35668) of 160 µM (≈ 417 µg/mL).
